Experimental data published in PMC9788418, “Design, Synthesis and Biological Evaluation of Syn and Anti-like Double Warhead Quinolinones Bearing Dihydroxy Naphthalene Moiety as Epidermal Growth Factor Receptor Inhibitors with Potential Apoptotic Antiproliferative Action” (Molecules, 2022).
Where “and” joins values, the source holds several entries; their conditions need not be identical. Identical values can stand only once.

What was measured:
caspase-3 = test: Caspase-3 activation assay; settings: for Caspase-3 Conc: A-549; for Caspase-3 Fold Change: A-549, vs control untreated cells
Protocol: record autophosphorylation level, EGFR kinase assay was carried out based on DELFIA/Time-
Resolved Fluorometry. The compounds were first dissolved in DMSO absolute, after dilution to
Each compound (10 µL) was incubated
with recombinant enzyme (10 µL, 5 ng for EGFR, 1:80 dilution in 100 mM HEPES) for 10 min at
25 °C, after the addition of 5X buffer (10 µL, containing 2 mM MnCl2, 100 µM Na3VO4, 20 mM HEPES and 1 mM DTT) and ATP-MgCl2 (20 µL, containing 0.1 mM ATP and 50 mM MgCl2) and
incubation for 1h. The negative and positive controls were included in each plate by the incubation
of enzyme either with or without ATP-MgCl2. The liquid was removed after incubation and the plates
were washed thrice using wash buffer. Europium-tagged antiphosphotyrosine antibody (75 µL, 400
ng) was added to each well followed by incubation of 1h and then washing of the plates using buffer.
The enhancement solution was added to each well and the signal was recorded at excitation and
The autophosphorylation percentage inhibition by compounds was calculated using the following equation:

[1] = system: HT-29 (colon cancer cell line); test: Antiproliferative assay; format: cell-based, human; settings: Homo sapiens, read-out: Antiproliferative Activity IC50 ± SEM, HT-29
Protocol: (§1) 4.2.1.2. Assay for antiproliferative effect
(§2) To explore the antiproliferative potential of compounds MTT assay was performed according to previously reported procedure using different cell lines to explore the antiproliferative potential of compounds propidium iodide fluorescence assay was performed using different cell lines. To calculate the total nuclear DNA, a fluorescent dye (propidium iodide, PI) is used which can attach to the DNA, thus offering a quick and precise technique. PI cannot pass through the cell membrane and its signal intensity can be considered as directly proportional to quantity of cellular DNA. Cells whose cell membranes are damaged or have changed permeability are counted as dead ones. The assay was performed by seeding the cells of different cell lines at a density of 3000-7500 cells/well (in 200µl […]
(§3) atmospheric conditions. The medium was removed; the compounds were added to the plates at 10 µM concentrations (in 0.1% DMSO) in triplicates, followed by incubation for 48 h. DMSO (0.1%) was used as control. After incubation, medium was removed followed by the addition of PI (25 µl, 50µg/mL in water/medium) to each well of the plates. At -80 °C, the plates were allowed to freeze for 24 h, followed by thawing at 25 °C. A fluorometer (Polar-Star BMG Tech) was used to record the readings at excitation and emission wavelengths of 530 and 620 nm for each well. The percentage cytotoxicity of compounds was calculated using the following formula:
(§4) Where ATC= Absorbance of treated cells and AC= Absorbance of control. […]
(§5) positive control in the assay.

[2] = system: MCF-7 (breast cancer cell line); test: Antiproliferative assay; format: cell-based, human; settings: Homo sapiens, MCF7; read-out: Antiproliferative Activity IC50 ± SEM, MCF-7
Protocol: as §1, §2, §3, §4, §5

[3] = system: A-549 (epithelial cancer cell line); test: Antiproliferative assay; format: cell-based, human; settings: Homo sapiens, A549; read-out: Antiproliferative Activity IC50 ± SEM, A-549
Protocol: as §1, §2, §3, §4, §5

caspase-8 = test: Caspase-8 activation assay; format: cell-based, human; settings: for Caspase-8 Fold Change: vs control cells
[4] = system: Panc-1 (pancreas cancer cell line); test: Antiproliferative assay; format: cell-based, human; settings: Homo sapiens, PANC-1; read-out: Antiproliferative Activity IC50 ± SEM, Panc-1
Protocol: 4.2. Biological evaluation
4.2.1. Cytotoxic activity using MTT Assay and evaluation of IC50 […]
cells were seeded at a density of 10^4 cells mL-1 in flat-bottomed culture plates containing 96 wells each. After 24 h, medium was removed from the plates and the compounds in (in 0.1% DMSO) were added (in 200 μL medium to yield a final concentration of 0.1% v/v) to the wells of plates. A single […]
incubation, medium was removed completely from the plates followed by addition of MTT (0.4 mg/mL in medium) to each well and subsequent incubation of plates for 3h. MTT (along with the medium) was removed and DMSO (150μL) was added to each well of the culture plates, followed by vortexing and subsequent measurement of absorbance (at 540 nm) using microplate reader. The data […]
as §1, §2, §3, §4, §5

O=c1cc(-n2cc(COc3cccc4cccc(OCc5cn(-c6cc(=O)[nH]c7ccccc67)nn5)c34)nn2)c2ccccc2[nH]1 [Compound 4a, 4,4′-(((naphthalene-1,8-diylbis(oxy))bis(methylene))bis(1H-1,2,3-triazole-4,1-diyl))-bis-(quinolin-2(1H)-one)]
Caspase-3 Conc (caspase-3): 587.50 ± 4.50 pg/mL
Caspase-3 Fold Change (caspase-3): 9 and 8.95
IC50 [1]: 0.036 ± 0.003 µM
IC50 [2]: 0.033 ± 0.003 µM
IC50 [3]: 0.031 ± 0.003 µM
melting point: > 360 °C
Caspase-8 Conc (caspase-8): 1.20 ng/mL
Caspase-8 Fold Change (caspase-8): 6
IC50 [4]: 0.036 ± 0.003 µM

Cc1ccc2[nH]c(=O)cc(-n3cc(COc4cccc5cccc(OCc6cn(-c7cc(=O)[nH]c8ccc(C)cc78)nn6)c45)nn3)c2c1 [Compound 4b, 4,4′-(((naphthalene-1,8-diylbis(oxy))bis(methylene))bis(1H-1,2,3-triazole-4,1-diyl))-bis(6-methylquinolin-2(1H)-one)]
Caspase-3 Conc (caspase-3): 535.50 ± 4.50 pg/mL
Caspase-3 Fold Change (caspase-3): 8 and 8.15
IC50 [1]: 0.048 ± 0.004 µM
IC50 [2]: 0.043 ± 0.004 µM
IC50 [3]: 0.041 ± 0.004 µM
Caspase-8 Conc (caspase-8): 0.80 ng/mL
Caspase-8 Fold Change (caspase-8): 4
IC50 [4]: 0.046 ± 0.004 µM
